Reference: patent EP0207696A1, “Dialkylaminotetrahydrobenzothiazoles and oxazoles” (ELI LILLY AND COMPANY, priority 1985, dated 1987)

How the values were obtained:
[1] = tested on: anesthetized spontaneously hypertensive rats; experiment: blood pressure in anesthetized spontaneously hypertensive rats; format: in vivo; settings: anesthetized SHR
Protocol: Compounds according to XX, particularly those wherein both R^3 and R^4 are methyl, reduce the blood pressure of anesthetized spontaneously hypertensive rats, as illustrated by the following experiment: • Adult male spontaneously hypertensive rats (SHR) (Taconic Farms, Germantown, New York), weighing approximately 300 g. were anesthetized with pentobarbital sodium (60 mg./kg., i.p.). The trachea was cannulated and the SHR respired room air. Pulsatile arterial blood pressure was measured from a cannulated carotid artery using a Statham transducer (P23 ID). Mean arterial blood pressure was calculated as diastolic blood pressure plus 1/3 pulse pressure. Cardiac rate was monitored by a cardiotachometer which was triggered by the systolic pressure pulse. Drug solutions were administered i.v. through a catheter placed in a femoral vein.
Arterial blood pressure and cardiac rate were recorded on a multichannel oscillograph (Beckman, Model R511A). Fifteen minutes were allowed to elapse following surgery for equilibration of the preparation.
Table 3 which follows gives the results of this test using (±)-2-amino-6-di-n-propyl-5,6,7,8-tetra- hydrobenzothiazole dihydrobromide. In Table 3, column 1 gives the dose level, column 2, the change in mean arterial blood pressure.

prolactin secretion = experiment: inhibition of prolactin secretion in reserpinized rats; format: in vivo, rats of the Sprague-Dawley strain; settings: percent prolactin inhibition; 50 mcg/kg intraperitoneally; serum one hour after treatment; reserpine-pretreated male rats
Source text: As previously stated, the compounds of this invention (wherein neither R^3 nor R^4 is H) are receptor agonists; ie, they are capable of increasing the quantities of various neurohormones--dopamine and norepi- nephrine in particular--available for interaction with specific receptors. For example, the compound according to XX wherein R^1 and R^2 are H and R^3 and R^4 are both n-propyl, is a specific dopamine D-2 agonist.
Adult male rats of the Sprague-Dawley strain weighing about 200 g were housed in an air-conditioned room with controlled lighting (lights on 6 a.m. - 8 p.m.) and fed lab chow and water ad libitum. Each rat received an intraperitoneal injection of 2.0 mg of reserpine in aqueous suspension 18 hours before administration of the test drug. The purpose of the reserpine was to keep the rat prolactin levels uniformly elevated. The compound was dissolved in 10 percent ethanol, and injected intraperitoneally to groups of ten rats at preselected dose levels. A control group of 10 intact males received an equivalent amount of 10 percent ethanol. One hour after treatment, all rats were killed by decapitation, and 150 µl aliquots of serum were assayed for prolactin.
The difference between the prolactin levels of the treated rats and the control rats, divided by the prolactin level of the control rats gives the percent inhibition of prolactin secretion attributable to the given dose. […]

[2] = tested on: 6-hydroxydopamine-lesioned rats; experiment: turning behavior in 6-hydroxydopamine-lesioned rats; format: in vivo; settings: 1000 mcg/kg; first 15 minutes after the end of the latency period
Source text: Dopamine agonists are also known to affect turning behavior in 6-hydroxydopamine-lesioned rats in a test procedure designed to uncover compounds useful for the treatment of Parkinsonism. In this test, nigroneostriatal-lesioned rats are employed, as prepared by the procedure of Ungerstedt and Arbuthnott, Brain Res, 24, 485 (1970). A compound having dopamine agonist activity causes the rats to turn in circles contralateral to the side of the lesion. After a latency period, which varies from compound to compound, the number of turns is counted over a 15-minute period.
Results obtained from such testing for (±)-2-amino-6-di-n-propylamino-5,6,7,8-tetrahydrobenzothiazole dihydrobromide are set forth in Table 2 below. In the table, column 1 gives the dose and column 2 the average number of turns observed in first 15 minutes after the end of the latency period.

conscious SHR = experiment: hypotensive action in conscious SHR; format: in vivo; settings: 1 mg/kg i.v.
Protocol: In another test for hypotensive action conscious SHR, cannulated in the femoral artery and vein, were used. The drug was administered i.v. (±)-2-Amino-6-dimethylamino-5,6,7,8-tetrahydrobenzothiazole was tested in this system as the dihydrobromide salt at a 1 mg/kg dose. In the table, column 1 gives time in minutes after injection and columns 2 and 3 the mean percent decrease in arterial pressure and heart rate respectively for that time interval.

Structure (SMILES): CCCN(CCC)C1CCc2nc(N)sc2C1 (racemic) [(±)-2-Amino-6-di-n-propylamino-5,6,7,8-tetrahydrobenzothiazole]
- Decrease in Mean Arterial Blood Pressure ([1]; 1 mcg/kg i.v.): -16.1 ± 2.4
- Decrease in Mean Arterial Blood Pressure ([1]; 10 mcg/kg i.v.): -21.0 ± 2.0
- Decrease in Mean Arterial Blood Pressure ([1]; 100 mcg/kg i.v.): -34.1 ± 3.2
- Decrease in Mean Arterial Blood Pressure ([1]; 1000 mcg/kg i.v.): +13.5 ± 4.4
- % Inhibition (prolactin secretion): 30%
- Average number of Turns [2]: 51

Structure (SMILES): CN(C)C1CCc2nc(N)sc2C1 (racemic) [(±)-2-Amino-6-dimethylamino-5,6,7,8-tetrahydrobenzothiazole]
- PERCENT CHANGE FROM CONTROL Blood Pressure (conscious SHR; 5 minutes after injection): -3.6%
- PERCENT CHANGE FROM CONTROL Heart Rate (conscious SHR; 5 minutes after injection): -12.3%
- PERCENT CHANGE FROM CONTROL Blood Pressure (conscious SHR; 15 minutes after injection): -17.1%
- PERCENT CHANGE FROM CONTROL Heart Rate (conscious SHR; 15 minutes after injection): -17.7%
- PERCENT CHANGE FROM CONTROL Blood Pressure (conscious SHR; 30 minutes after injection): -18.6%
- PERCENT CHANGE FROM CONTROL Heart Rate (conscious SHR; 30 minutes after injection): -15.5%
- PERCENT CHANGE FROM CONTROL Blood Pressure (conscious SHR; 45 minutes after injection): -16.9%
- PERCENT CHANGE FROM CONTROL Heart Rate (conscious SHR; 45 minutes after injection): -8.3%
- PERCENT CHANGE FROM CONTROL Blood Pressure (conscious SHR; 60 minutes after injection): -17.2%
- PERCENT CHANGE FROM CONTROL Heart Rate (conscious SHR; 60 minutes after injection): -5.2%
- PERCENT CHANGE FROM CONTROL Blood Pressure (conscious SHR; 90 minutes after injection): -16.9%
- PERCENT CHANGE FROM CONTROL Heart Rate (conscious SHR; 90 minutes after injection): -0.7%
- PERCENT CHANGE FROM CONTROL Blood Pressure (conscious SHR; 120 minutes after injection): -15.8%
- PERCENT CHANGE FROM CONTROL Heart Rate (conscious SHR; 120 minutes after injection): -4.1%
- PERCENT CHANGE FROM CONTROL Blood Pressure (conscious SHR; 180 minutes after injection): -14.7%
- PERCENT CHANGE FROM CONTROL Heart Rate (conscious SHR; 180 minutes after injection): -4.1%
